Results from patent US9969714B2, “Carboxylic acid compounds useful for inhibiting microsomal prostaglandin E2 synthase-1” (Eli Lilly and Company, priority 2014, dated 2018).

What was measured:
[1] = system: Human epithelial lung carcinoma cell line A549; experiment: Cell based assay for measuring eicosanoid selectivity (rhIL-1β-induced PGE2, EIA); settings: A549 cells, rhIL-1β 0.1 ng/mL, approximately 18 hours, read-out: IC50, inhibition of PGE2 formation
Method: Human epithelial lung carcinoma cell line A549 is obtained from ATCC (CCL-185) and maintained in cell growth medium (Kaighn's F12 cell culture medium+10% fetal bovine serum (FBS)), under standard 5% CO2 humidified atmosphere at 37° C. The cells are passaged at 1:3 twice per week.
For the assays, cells are harvested from flasks by washing once with phosphate buffered saline (PBS), then once with Trypsin-EDTA. After 3-5 minutes at 37° C., the cells are suspended in cell growth medium and centrifuged at 2,000 rpm, 25° C., for 5 minutes. The supernatant is aspirated and the cell pellet is re-suspended in cell growth medium. The cell number is determined by counting an aliquot of cells which has been diluted in PBS and Trypan blue on a hemocytometer. Cells are plated at 40,000/well in 96 well Falcon plates 24 hours prior to treatment. Compounds are diluted in DMSO to 100× of the final concentration in Screen Mates tubes. The medium is removed from the cells and fresh medium (90 μL/well) is added to the cells. The compounds are added at 1 μL/well, n=2, to give seven concentrations each. Cells are pretreated with compounds for 30 minutes at 37° C., 5% CO2. […] After approximately 90-120 minutes at room temperature on an orbital shaker at 100 rpm, the plates are read at A412 on a plate reader. […]

human whole blood = experiment: Human whole blood assay (LPS-induced PGE2, LC/MS/MS); format: cell-based; settings: LPS 100 μg/mL, 20-24 hours, n=6, read-out: IC50, inhibition of PGE2 formation
Method: Blood is collected from normal volunteer donors into sodium heparin VACUTAINER tubes. Donors are selected, in part, on their confirmation that they have not taken NSAIDs, aspirin, Celebrex®, or glucocorticoids within two weeks of the donation. All tubes/donor are pooled into 250 mL Corning conical centrifuge tubes and 436.5 μL/well is distributed into deep well polypropylene plates. Compounds are diluted in DMSO to 100× final and 4.5 μL/well in duplicate or triplicate is added to give 7 point curves. […] One hundred microliters is quantitatively transferred to Costar cluster tubes blocks and 400 μL/well of the methanol stop reagent and internal standards, d4-PGE2, d4-PGF2α, and […] are added. […]
Solid phase extraction is performed using Waters HLB 30 mg/bed 96 well plates on a vacuum manifold: Step 1, the matrix is washed with methanol (1 mL), followed by 0.1% formic acid in water (1 mL); Step 2, 400 μL sample is applied along with 0.1% formic acid in water (900 μL) and allowed to bind for 5 minutes; Step 3, the matrix is washed with 0.1% formic acid in water (600 μL), followed by 80/20 water/methanol (600 μL); Step 4, the products are eluted with 2-500 μL volumes of EtOAc; Step 5 the samples are dried under nitrogen and reconstituted in 75/25 water/acetonitrile with 0.1% formic acid (50 μL). The products are analyzed by LC/MS/MS.

For `Cc1cccc2ccc(N3CCC(C(=O)N[C@H]4CCC[C@H]4CCc4ccccc4C(=O)O)CC3)nc12` [Example 1, 2-(2-((1S,2S)-2-(1-(8-Methylquinolin-2-yl)piperidine-4-carboxamido)cyclopentyl)ethyl)benzoic acid], the IC50 [1] was 5.3 nM and the IC50 (human whole blood) was 5.9 ± 3.4 nM.
